According to the supplement of paper PMC10307832:

Legend:
Assay in all cases: relative viability (nuclei count vs DMSO), 5 days (fraction); higher = more cells survive
Apatinib + Lapatinib = compound: N#CC1(c2ccc(NC(=O)c3cccnc3NCc3ccncc3)cc2)CCCC1 [Apatinib] + CS(=O)(=O)CCNCc1ccc(-c2ccc3ncnc(Nc4ccc(OCc5cccc(F)c5)c(Cl)c4)c3c2)o1 [Lapatinib] (partner 2 µM)
Summary of the method: (§1)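 Relative viability divides the nuclei count in treated wells by that in vehicle wells. Lung cancer cell lines were seeded in 1536-well plates, dosed by pin tool the next day, and fixed and stained after 5 days in one step with final 0.05% Triton X-100, 1% formaldehyde and 1 ug/ml Hoechst. Dosing was a single drug or a fixed anchor-drug dose plus five library-drug doses (not always all listed) in √10 steps, and values are medians of duplicate plates imaged at 4×.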

Metformin + Pemetrexed = compound: CN(C)C(=N)NC(=N)N [Metformin] + Nc1nc2[nH]cc(CCc3ccc(C(=O)N[C@@H](CCC(=O)O)C(=O)O)cc3)c2c(=O)[nH]1 [Pemetrexed] (partner 0.2 µM)
Summary of the method: as §1

Metformin + Linsitinib = compound: CN(C)C(=N)NC(=N)N [Metformin] + C[C@]1(O)C[C@@H](c2nc(-c3ccc4ccc(-c5ccccc5)nc4c3)c3c(N)nccn32)C1 [Linsitinib] (partner 1 µM)
Summary of the method: as §1

Metformin + Dasatinib = compound: CN(C)C(=N)NC(=N)N [Metformin] + Cc1nc(Nc2ncc(C(=O)Nc3c(C)cccc3Cl)s2)cc(N2CCN(CCO)CC2)n1 [Dasatinib] (partner 0.075 µM)
Summary of the method: as §1

Cell Line	relative viability (Apatinib + Lapatinib; first compound 0.08 µM)	relative viability (Apatinib + Lapatinib; first compound 0.253 µM)	relative viability (Apatinib + Lapatinib; first compound 0.8 µM)	relative viability (Apatinib + Lapatinib; first compound 2.53 µM)	relative viability (Apatinib + Lapatinib; first compound 8 µM)	relative viability (Metformin + Pemetrexed; first compound 31.62 µM)	relative viability (Metformin + Pemetrexed; first compound 100 µM)	relative viability (Metformin + Pemetrexed; first compound 316.23 µM)	relative viability (Metformin + Pemetrexed; first compound 1000 µM)	relative viability (Metformin + Linsitinib; first compound 10 µM)	relative viability (Metformin + Linsitinib; first compound 31.62 µM)	relative viability (Metformin + Linsitinib; first compound 100 µM)	relative viability (Metformin + Linsitinib; first compound 316.23 µM)	relative viability (Metformin + Linsitinib; first compound 1000 µM)	relative viability (Metformin + Dasatinib; first compound 10 µM)	relative viability (Metformin + Dasatinib; first compound 31.62 µM)	relative viability (Metformin + Dasatinib; first compound 100 µM)	relative viability (Metformin + Dasatinib; first compound 316.23 µM)	relative viability (Metformin + Dasatinib; first compound 1000 µM)	relative viability (Metformin + Pemetrexed; first compound 10 µM)
HCC-78	0.568	0.731	0.942	0.829	0.748	0.878	1.15	0.894	0.908	0.842	0.927	0.877	0.681	0.927	0.405	0.469	0.459	0.549	0.327	–
NCI-H1563	0.682	1.03	0.943	0.891	0.834	0.899	0.847	0.89	0.921	1.22	1.34	1.19	0.955	0.893	0.535	0.573	0.574	0.545	0.489	0.874
UMC-11	1.15	0.917	0.83	0.972	0.901	0.697	0.81	0.791	0.855	1.07	1.09	1.12	1.04	1.14	0.528	0.482	0.546	0.447	0.45	0.907
NCI-H3122	1.03	1.02	1.01	0.989	1.01	0.171	0.197	0.184	0.222	0.89	0.98	0.949	0.96	0.92	0.509	0.879	0.897	0.666	0.896	0.178
BEN	0.604	0.67	0.764	0.578	0.591	1.08	0.733	0.812	0.64	1.21	1.27	1.3	1.15	1.29	0.421	0.409	0.34	0.281	0.414	1.11
LU99A	1.02	1.07	0.969	0.821	0.954	0.212	0.157	0.168	0.164	0.493	0.491	0.466	0.377	0.514	0.415	0.459	0.511	0.516	0.538	0.152
EKVX	0.186	0.131	0.229	0.186	0.188	0.301	0.417	0.316	0.294	0.739	0.969	1.04	0.861	0.9	–	0.856	0.598	0.671	0.779	–
NCI-H1437	0.761	0.841	0.745	0.624	0.537	0.336	0.343	0.352	0.317	1.22	1.09	1.11	1.1	1.19	0.602	0.48	0.359	0.41	0.415	0.347
A-427	1.06	1.1	1.06	0.984	0.982	1.05	1	1	0.878	1.09	1.13	1.09	1.1	1.04	0.53	0.722	0.676	0.74	0.695	0.972
SK-LU-1	0.939	1.16	1.03	0.715	0.709	0.956	0.97	0.892	0.905	0.947	1.08	0.674	1.08	1.03	0.171	0.192	0.174	0.17	0.177	0.853
NCI-H2405	0.959	1.3	1.1	0.975	0.992	1.16	1.04	0.619	0.679	0.845	0.92	0.981	0.882	0.436	0.272	0.265	0.253	0.272	0.255	–
LK-2	0.7	0.827	0.878	0.782	0.73	0.292	0.255	0.237	0.306	0.906	0.996	0.948	0.694	0.81	0.447	0.424	0.381	0.383	0.558	0.319
LOU-NH91	0.727	0.726	0.754	0.712	0.77	0.394	0.409	0.385	0.437	1.01	0.876	0.986	1.09	0.905	0.576	0.491	0.498	0.538	0.499	0.438
COR-L 105	0.358	0.342	0.354	0.336	0.33	1.26	1.33	1.29	1.1	1.06	1.23	0.977	0.87	0.815	0.452	0.542	0.44	0.33	0.348	1.12
H3255	0.235	0.227	0.231	0.311	0.286	0.556	0.567	0.5	0.564	0.942	1.08	0.961	0.938	0.873	0.391	0.344	0.232	0.402	0.315	0.55
NCI-H2228	1.01	1.05	0.986	0.835	0.644	0.199	0.381	0.28	0.337	0.542	0.973	–	0.583	0.889	0.519	0.576	0.438	0.458	0.55	0.313
NCI-H1993	0.824	0.749	0.805	0.866	0.798	0.507	0.588	0.558	0.633	0.719	0.73	0.838	0.686	0.705	0.764	0.59	0.665	0.639	0.703	0.521

Cell Line	relative viability (Apatinib + Lapatinib; first compound 0.08 µM)	relative viability (Apatinib + Lapatinib; first compound 0.253 µM)	relative viability (Apatinib + Lapatinib; first compound 0.8 µM)	relative viability (Apatinib + Lapatinib; first compound 2.53 µM)	relative viability (Apatinib + Lapatinib; first compound 8 µM)	relative viability (Metformin + Pemetrexed; first compound 31.62 µM)	relative viability (Metformin + Pemetrexed; first compound 100 µM)	relative viability (Metformin + Pemetrexed; first compound 316.23 µM)	relative viability (Metformin + Pemetrexed; first compound 1000 µM)	relative viability (Metformin + Linsitinib; first compound 10 µM)	relative viability (Metformin + Linsitinib; first compound 31.62 µM)	relative viability (Metformin + Linsitinib; first compound 100 µM)	relative viability (Metformin + Linsitinib; first compound 316.23 µM)	relative viability (Metformin + Linsitinib; first compound 1000 µM)	relative viability (Metformin + Dasatinib; first compound 10 µM)	relative viability (Metformin + Dasatinib; first compound 31.62 µM)	relative viability (Metformin + Dasatinib; first compound 100 µM)	relative viability (Metformin + Dasatinib; first compound 316.23 µM)	relative viability (Metformin + Dasatinib; first compound 1000 µM)	relative viability (Metformin + Pemetrexed; first compound 10 µM)
NCI-H1651	0.914	0.909	0.709	0.698	0.76	0.62	0.608	0.53	0.599	1.3	1.23	1.35	1.21	1.43	0.757	0.349	0.346	0.361	0.464	0.445
NCI-H838	1.29	1.13	0.998	0.965	0.891	0.266	0.278	0.266	0.271	1.04	1.09	1.05	0.988	1.02	0.271	0.254	0.356	0.241	0.348	0.28
NCI-H1755	1.03	1	1.04	1.08	0.722	0.443	0.392	0.34	0.376	0.842	0.84	0.871	0.843	0.914	0.422	0.332	0.433	0.36	0.417	0.416
NCI-H1734	1.14	1.13	1.06	0.871	0.909	0.418	0.461	0.456	0.455	0.99	0.954	1.05	0.844	0.946	0.413	0.472	0.463	0.47	0.498	0.49
NCI-H2009	0.993	0.893	0.863	0.795	0.538	0.943	0.891	0.814	0.891	1.22	1.17	1.17	0.781	0.9	0.503	0.522	0.483	0.401	0.467	0.874
SW 1573	0.958	1.09	1.15	1.09	1.02	0.817	0.668	0.725	0.743	0.916	0.811	0.969	0.72	0.996	0.589	0.833	0.708	0.425	0.551	0.728
HARA	0.755	0.895	0.674	0.731	0.623	0.28	0.327	0.301	0.28	1.14	1.07	1.2	0.872	1.06	–	0.311	0.389	0.319	0.423	0.323
PC-3 [JPC-3]	0.472	0.441	0.444	0.394	0.43	1.08	–	0.897	0.705	0.895	1.01	0.902	0.918	0.942	0.944	0.889	0.979	0.886	0.986	1.12
NCI-H1666	0.631	0.726	0.736	0.759	0.682	0.862	0.854	0.871	0.928	0.863	1	0.962	0.703	1.09	0.752	0.957	0.79	0.798	0.779	0.825
NCI-H520	0.981	1.12	0.856	0.767	0.659	0.593	0.688	0.657	0.689	1.09	0.842	1.02	0.914	0.931	0.24	0.195	0.265	0.195	0.217	0.656
NCI-H2023	0.751	0.945	0.911	0.74	0.737	0.219	0.226	0.187	0.205	–	0.687	0.806	–	0.515	0.599	0.618	0.703	0.493	0.662	0.185
LXF-289	0.935	0.894	0.888	0.838	0.875	0.83	0.756	0.806	0.784	0.923	0.912	0.996	0.879	0.915	0.186	0.188	0.188	0.137	0.236	0.74
EPLC-272H	1.13	0.874	1.11	0.708	1.05	0.345	0.429	0.394	0.39	1.39	1.39	1.26	1.08	1.51	0.358	0.445	0.462	0.426	0.394	0.467
NCI-H2087	0.877	0.982	1.09	0.793	0.891	0.702	0.615	0.536	0.614	0.609	0.908	0.805	0.712	0.782	–	0.933	0.891	0.676	0.693	0.622
NCI-H647	1.35	1.13	0.925	1.02	0.858	0.137	0.16	0.146	0.148	1.11	1.14	1.24	1.19	1.2	0.226	0.231	0.567	0.221	0.212	0.127
NCI-H661	0.598	0.59	0.504	0.477	0.391	0.934	0.877	0.858	0.879	0.761	0.966	0.812	0.767	0.677	–	0.895	0.995	0.828	0.893	0.9
